The record followed here is patent US20260167623A1 (NIKANG THERAPEUTICS, INC., priority 2022, published 2026).

The assay concerns the target T1, CDK2 (Homo sapiens, UniProt P24941).
T1 construct: High-Throughput Measurement of Cellular Endogenous CDK2; endogenous in cells; host or cells: OVCAR3
The experiment in a line: Inhibition of CDK2: phospho-Rb (S807/811) HTRF measurement in OVCAR3 cells, 24 h. It is filed as cell-based. As to conditions: 24 h compound treatment, read-out: pRB_OVCAR3_24h. Here is the method: Inhibition of CDK2: Phospho-R^b Measurement in Cells
Phosphorylation of RB protein at S807/811 were measured using HTRF phospho-RB cellular kits (Cat #64RBS807PEG) from Cisbio.
On Day 1, OVCAR3 (CDK2 dependent cell line) cells were seeded into 96-well tissue-culture treated plates at 20,000 cells/well in 200 μL and incubated overnight at 37° C. in CO2 atmosphere. On Day 2, the cells were treated with test compounds at concentrations from 0.3 to 10,000 nM using HP D300 digital dispenser. Twenty-four hours after compound treatment, cell culture media is removed by flicking the plate and tapping the plate against clean paper towel. 30 μL 1× lysis buffer was supplemented from the kit was added to each well and the plate was incubated at room temperature on shaker for 30 min. After homogenization by pipetting up and down, 8 μL cell lysate from 96-well cell culture plate was transferred to 384-well small volume white detection plate. 2 μL premixed detection solution was added and the plate was covered with sealer. To prepare the detection solution, d2 conjugated-phospho-RB antibody and Eu-cryptate conjugated phosphor-RB antibody were diluted into detection buffer following manufacturer's instruction. Detection plates were incubated for 4 h at room temperature and read on ClarioStar (BMG Labtech) in TR-FRET mode (665 nM and 620 nM). The TR-FRET ratio (665 nM/620 nM) was plotted against the compound concentration and normalized to DMSO controls. Half maximal inhibition concentration (IC50) values were calculated with a four-parameter logistic fit using GraphPad Prism (version 8; La Jolla, CA).
(In TR-FRET formats the signal depends on donor and acceptor labels being close together.)
In the case of `CO[C@@H]1CN(S(=O)(=O)c2cccc(N3CCC(CN4CCC(c5ccc6c(N7CCC(=O)NC7=O)nn(C)c6c5)CC4)CC3)c2)CC[C@H]1Nc1ncc(Cl)cn1` (racemic) [Example 219, Rac-1-(6-(1-((1-(3-(((3R,4R)-4-((5-chloropyrimidin-2-yl)amino)-3-methoxypiperidin-1-yl)sulfonyl)phenyl)piperidin-4-yl)methyl)piperidin-4-yl)-1-methyl-1H-indazol-3-yl)dihydropyrimidine-2,4(1H,3H)-dione], the IC50 is > 2500 nM. As for `Cn1nc(N2CCC(=O)NC2=O)c2ccc(C3CCN(CC4CCN(c5cccc(S(=O)(=O)N6CC7CCC(C6)C7Nc6ncc(Cl)cn6)c5)CC4)CC3)cc21` (racemic) [Example 229, Rac-1-(6-(1-((1-(3-(((1R,5S,8s)-8-((5-chloropyrimidin-2-yl)amino)-3-azabicyclo[3.2.1]octan-3-yl)sulfonyl)phenyl)piperidin-4-yl)methyl)piperidin-4-yl)-1-methyl-1H-indazol-3-yl)dihydropyrimidine-2,4(1H,3H)-dione], the IC50 is > 2500 nM. The figure for `Cn1nc(N2CCC(=O)NC2=O)c2ccc(C3CCN(Cc4cccc(S(=O)(=O)N5CCC(Nc6ncc(C(F)(F)F)cn6)CC5)c4)CC3(F)F)cc21` (centres unmarked) [Example 3, 1-(6-(3,3-difluoro-1-(3-((4-((5-(trifluoromethyl)pyrimidin-2-yl)amino)-piperidin-1-yl)sulfonyl)benzyl)-piperidin-4-yl)-1-methyl-1H-indazol-3-yl)dihydropyrimidine-2,4(1H,3H)-dione] is 100 to 500 nM; for `Cn1nc(N2CCC(=O)NC2=O)c2ccc(N3CC4(CN(Cc5cccc(S(=O)(=O)N6CCC(Nc7ncc(C(F)(F)F)cn7)CC6)c5)C4)C3)cc21` [Example 4, 1-(1-methyl-6-(6-(3-((4-((5-(trifluoromethyl)pyrimidin-2-yl)amino)piperidin-1-yl)sulfonyl)benzyl)-2,6-diazaspiro[3.3]heptan-2-yl)-1H-indazol-3-yl)dihydropyrimidine-2,4(1H,3H)-dione] it is 100 to 500 nM; for `O=C1CCN(c2nn(CC(F)(F)F)c3cc(C4CCN(Cc5cccc(S(=O)(=O)N6CCC(Nc7ncc(C(F)(F)F)cn7)CC6)c5)CC4)ccc23)C(=O)N1` [Example 5, 1-(1-(2,2,2-trifluoroethyl)-6-(1-(3-((4-((5-(trifluoromethyl)pyrimidin-2-yl)amino)-piperidin-1-yl)sulfonyl)benzyl)-piperidin-4-yl)-1H-indazol-3-yl)dihydropyrimidine-2,4(1H,3H)-dione] it is 100 to 500 nM. The figure for `Cc1ncsc1-c1ccc([C@H](C)NC(=O)[C@@H]2C[C@@H](O)CN2C(=O)[C@@H](NC(=O)CC2CCN(Cc3cccc(S(=O)(=O)N4CCC(Nc5ncc(C(F)(F)F)cn5)CC4)c3)CC2)C(C)(C)C)cc1` [Example 9, (2S,4R)-1-((S)-3,3-dimethyl-2-(2-(1-(3-((4-((5-(trifluoromethyl)pyrimidin-2-yl)amino)piperidin-1-yl)sulfonyl)-benzyl)piperidin-4-yl)acetamido)butanoyl)-4-hydroxy-N-((S)-1-(4-(4-methylthiazol-5-yl)phenyl)ethyl)pyrrolidine-2-carboxamide] is 100 to 500 nM; for `Cn1nc(N2CCC(=O)NC2=O)c2ccc(C3CCN(Cc4cccc(S(=O)(=O)[C@H]5CC[C@H](Nc6ncc(C(F)(F)F)cn6)CC5)c4)CC3)cc21` [Example 10, 1-(1-methyl-6-(1-(3-(((1r,4r)-4-((5-(trifluoromethyl)pyrimidin-2-yl)amino)-cyclohexyl)sulfonyl)benzyl)piperidin-4-yl)-1H-indazol-3-yl)dihydropyrimidine-2,4(1H,3H)-dione] it is 500 to 2500 nM; for `Cn1nc(N2CCC(=O)NC2=O)c2ccc(N3CCN(Cc4cccc(S(=O)(=O)N5CCC(Nc6ncc(C(F)(F)F)cn6)CC5)c4)CC3)cc21` [Example 12, 1-(1-methyl-6-(4-(3-((4-((5-(trifluoro-methyl)pyrimidin-2-yl)amino)piperidin-1-yl)sulfonyl)benzyl)piperazin-1-yl)-1H-indazol-3-yl)dihydropyrimidine-2,4(1H,3H)-dione] it is 100 to 500 nM. The figure for `Cn1nc(N2CCC(=O)NC2=O)c2ccc(C3CCN(Cc4cccc(S(=O)(=O)N5CCC(Nc6ncc(C(F)F)cn6)CC5)c4)CC3)cc21` [Example 13, 1-(6-(1-(3-((4-((5-(difluoromethyl)-pyrimidin-2-yl)amino)piperidin-1-yl)sulfonyl)benzyl)piperidin-4-yl)-1-methyl-1H-indazol-3-yl)dihydropyrimidine-2,4(1H,3H)-dione] is 100 to 500 nM; for `Cn1nc(N2CCC(=O)NC2=O)c2ccc(C3CCN(CC4CCN(S(=O)(=O)N5CCC(Nc6ncc(C(F)(F)F)cn6)CC5)CC4)CC3)cc21` [Example 15, 1-(1-methyl-6-(1-((1-((4-((5-(trifluoro-methyl)pyrimidin-2-yl)amino)piperidin-1-yl)sulfonyl)piperidin-4-yl)methyl)piperidin-4-yl)-1H-indazol-3-yl)dihydropyrimidine-2,4(1H,3H)-dione] it is 500 to 2500 nM; for `Cn1nc(N2CCC(=O)NC2=O)c2ccc(C3CCN(Cc4cccc(S(=O)(=O)N5CCC(Nc6ncc(C(C)(F)F)cn6)CC5)c4)CC3)cc21` [Example 17, 1-(6-(1-(3-((4-((5-(1,1-difluoroethyl)-pyrimidin-2-yl)amino)piperidin-1-yl)sulfonyl)benzyl)piperidin-4-yl)-1-methyl-1H-indazol-3-yl)dihydropyrimidine-2,4(1H,3H)-dione] it is > 2500 nM. For `Cn1nc(N2CCC(=O)NC2=O)c2ccc(C3CCN(CC4CCN(S(=O)(=O)c5ccc(Nc6ncc(C(F)(F)F)cn6)c(F)c5)CC4)CC3)cc21` [Example 18, 1-(6-(1-((1-((3-fluoro-4-((5-(trifluoro-methyl)pyrimidin-2-yl)amino)phenyl)-sulfonyl)piperidin-4-yl)methyl)piperidin-4-yl)-1-methyl-1H-indazol-3-yl)dihydropyrimidine-2,4(1H,3H)-dione], the IC50 was 500 to 2500 nM. The figure for `Cn1nc(N2CCC(=O)NC2=O)c2ccc(C3CCN(CC4CCN(S(=O)(=O)[C@H]5CC[C@H](Nc6ncc(C(F)(F)F)cn6)CC5)CC4)CC3)cc21` [Example 20, 1-(1-methyl-6-(1-((1-(((1r,4r)-4-((5-(trifluoromethyl)pyrimidin-2-yl)amino)-cyclohexyl)sulfonyl)piperidin-4-yl)methyl)-piperidin-4-yl)-1H-indazol-3-yl)-dihydropyrimidine-2,4(1H,3H)-dione] is 500 to 2500 nM.

Consider `O=C1CCN(c2nn(CC(F)(F)F)c3cc(C4CCN(Cc5cccc(S(=O)(=O)N6CCC(Nc7ncc(Cl)cn7)CC6)c5)CC4)ccc23)C(=O)N1` [Example 21], for which the IC50 lay within 500 to 2500 nM. The figure for `O=C1CCC(N2C(=O)c3cc(F)c(N4CCN(Cc5cccc(S(=O)(=O)N6CCC(Nc7ncc(Cl)cn7)CC6)c5)CC4)cc3C2=O)C(=O)N1` (centres unmarked) [Example 22, 5-(4-(3-((4-((5-chloropyrimidin-2-yl)amino)piperidin-1-yl)sulfonyl)benzyl)-piperazin-1-yl)-2-(2,6-dioxopiperidin-3-yl)-6-fluoroisoindoline-1,3-dione] is 500 to 2500 nM. For `Cn1nc(N2CCC(=O)NC2=O)c2ccc(N3CCN(Cc4cccc(S(=O)(=O)N5CCC(Nc6ncc(Cl)cn6)CC5)c4)CC3)cc21` [Example 25, 1-(6-(4-(3-((4-((5-chloropyrimidin-2-yl)amino)piperidin-1-yl)sulfonyl)benzyl)-piperazin-1-yl)-1-methyl-1H-indazol-3-yl)dihydropyrimidine-2,4(1H,3H)-dione] the value was 100 to 500 nM; for `Cn1nc(N2CCC(=O)NC2=O)c2ccc(C3CCN(Cc4cccc(S(=O)(=O)N5CCC(Nc6ncc(F)cn6)CC5)c4)CC3)cc21` [Example 26, 1-(6-(1-(3-((4-((5-fluoropyrimidin-2-yl)amino)piperidin-1-yl)sulfonyl)benzyl)-piperidin-4-yl)-1-methyl-1H-indazol-3-yl)dihydropyrimidine-2,4(1H,3H)-dione], > 2500 nM; for `Cn1nc(N2CCC(=O)NC2=O)c2ccc(C3CCN(C(c4cccc(S(=O)(=O)N5CCC(Nc6ncc(Cl)cn6)CC5)c4)C(F)F)CC3)cc21` (centres unmarked) [Example 30, 1-(6-(1-(1-(3-((4-((5-chloropyrimidin-2-yl)amino)piperidin-1-yl)sulfonyl)phenyl)-2,2-difluoroethyl)piperidin-4-yl)-1-methyl-1H-indazol-3-yl)dihydropyrimidine-2,4(1H,3H)-dione], 500 to 2500 nM. For `Cn1nc(N2CCC(=O)NC2=O)c2ccc(C3CCN(CCC4CCCN(S(=O)(=O)N5CCC(Nc6ncc(C(F)(F)F)cn6)CC5)C4)CC3)cc21` (centres unmarked) [Example 32, 1-(1-methyl-6-(1-(2-(1-((4-((5-(trifluoromethyl)pyrimidin-2-yl)amino)-piperidin-1-yl)sulfonyl)piperidin-3-yl)ethyl)piperidin-4-yl)-1H-indazol-3-yl)dihydropyrimidine-2,4(1H,3H)-dione] the value was 500 to 2500 nM; for `O=C1CCC(N2Cc3cc(N4CCN(Cc5cccc(S(=O)(=O)N6CCC(Nc7ncc(Cl)cn7)CC6)c5)CC4)c(F)cc3C2=O)C(=O)N1` (centres unmarked) [Example 34, 3-(5-(4-(3-((4-((5-chloropyrimidin-2-yl)amino)piperidin-1-yl)sulfonyl)benzyl)-piperazin-1-yl)-6-fluoro-1-oxoisoindolin-2-yl)piperidine-2,6-dione], 100 to 500 nM.
